Consider four compounds from patent US8080546B2, “Pyrazolo-pyridinone derivatives and methods of use” (Amgen Inc., priority 2007, dated 2011).

Assay [1] has as its system THP1 cells. Put plainly: Lipopolysaccharide-activated THP1 cell TNF production assay (THP1 cell based). To be noted: Homo sapiens, THP-1, LPS-induced TNF-α. Here is the method:
Lipopolysaccharide-Activated THP1 Cell TNF Production Assay
THP1 cells are resuspended in fresh THP1 media (RPMI 1640, 10% heat-inactivated FBS, 1XPGS, 1XNEAA, plus 30 μM PME) at a concentration of 1E6/mL. One hundred microliters of cells per well are plated in a polystyrene 96-well tissue culture. One microgram per mL of bacterial LPS is prepared in THP1 media and is transferred to the wells. Test compounds are dissolved in 100% DMSO and are serially diluted 3-fold in a polypropylene 96-well microtiter plate (drug plate). HI control and LO control wells contain only DMSO. One microliter of test compound from the drug plate followed by 10 μL of LPS are transferred to the cell plate. The treated cells are induced to synthesize and secrete TNF-α at 37° C. for 3 h. Forty microliters of conditioned media are transferred to a 96-well polypropylene plate containing 110 μL of ECL buffer (50 mM Tris-HCl pH 8.0, 100 mM NaCl, 0.05% Tween 20, 0.05% NaN3 and 1% FBS) supplemented with 0.44 nM MAB610 monoclonal Ab (R&D Systems), 0.34 nM ruthenylated AF210NA polyclonal Ab (R&D Systems) and 44 μg/mL sheep anti-mouse M280 Dynabeads (Dynal). After a 2 h incubation at room temperature with shaking, the reaction is read on the ECL M8 Instrument (IGEN Inc.). A low voltage is applied to the ruthenylated TNF-α immune complexes, which in the presence of TPA (the active component in Origlo), results in a cyclical redox reaction generating light at […]. The amount of secreted TNF-α in the presence of compound compared with that in the presence of DMSO vehicle alone (HI control) is calculated using the formula: % control (POC)=(cpd−average LO)/(average HI−average LO)*100. Data (consisting of POC and inhibitor concentration in μM) is fitted to a 4-parameter equation (y=A+((B−A)/(1+((x/C)^D))), where A is the minimum y (POC) value, B is the maximum y (POC), C is the x (cpd concentration) at the point of inflection and D is the slope factor) using a Levenburg-Marquardt non-linear regression algorithm.

Assay [2] addresses p38 (Homo sapiens, UniProt Q16539). The assay can be described thus: p38 in-vitro HTRF enzyme assay. Type of assay: biochemical. To be noted: recombinant human enzyme, read-out: p38 enyme HTRF assay IC50. On the procedure: p38 In-Vitro HTRF Enzyme Assay
The compounds of the invention can be tested for their respective affinities for the p38 protein using a conventional p38 in-vitro enzyme activity assay. For example, a P38-alpha HTRF assay may be used to measure the protein's in-vitro phosphorylation activity, and the data analyzed using time resolved fluorimetry techniques (FRET). A p38 HTRF assay is as follows. The kinase reaction buffer for p38α, p38β, p38δ and p38γ HTRF assays consists of 50 mM Tris-pH 7.5, 5 mM MgCl2, 0.1 mg/mL BSA, 100 μM Na3VO4 and 0.5 mM DTT. The HTRF detection buffer contains 100 mM HEPES-pH 7.5, 100 mM NaCl, 0.1% BSA, 0.05% Tween-20, and 10 mM EDTA. Each compound was dissolved in 100% DMSO and serially diluted (3 fold, 10 point) in a polypropylene 96-well microtiter plate (drug plate). The final starting concentration of the compound in the p38α and p38β enzymatic assays was about 1 μM. The final starting concentration of each compound in the p38δ and p38γ enzymatic assays was about 10 μM. The p38α, p38β, p38δ and p38γ kinase reactions were carried out in a polypropylene 96-well black round bottom assay plate in total volume of 30 μL kinase reaction buffer. Appropriate concentration of purified and activated enzyme (recombinant human) was mixed with indicated concentration of ATP and 100 nM GST-ATF2-Avitag, in the presence or absence (HI control) of each compound. In the absence of enzyme, the background was measured as LO control. HI controls and LO controls contained only DMSO. The reaction was allowed to incubate for 1 hour at RT. […] After 60 minutes incubation at room temperature, the assay plate was read in a Discovery Plate Reader. […] The resulting data was analyzed by taking the proportion of substrate phosphorylated in the kinase reaction in the presence of each individual compound and comparing it with that phosphorylated in the presence of DMSO vehicle alone (HI control). The data was calculated using the formula: % control (POC)=(compound−average LO)/(average HI−average LO)*100. […] All results were expressed as the mean±the standard error of the mean. Data acquisition and non-linear regression algorithms were performed using Activity Base v5.2 and XLfit software v4.1 respectively. Additional assay information may be obtained in Park Y W, Cummings R T, Wu L, et al. Homogeneous Proximity Tyrosine Kinase Assays Scintillation Proximity Assay versus Homogeneous Time-Resolved Fluorescence. Analytical Biochemistry.
(In general: Time-resolved FRET reads energy transfer from a long-lived donor to a nearby acceptor.)

For assay [3], the system named is IL-1. Put plainly: LPS induced IL-1 cell based assay (LPS-activated monocytes). To be noted: Homo sapiens, Monocyte. Here is the method: Lipopolysaccharide-Activated Monocyte TNF Production Assay
Test compounds were evaluated in vitro for the ability to inhibit the production of TNF by monocytes activated with bacterial lipopolysaccharide (LPS). Fresh residual source leukocytes (a byproduct of plateletpheresis) were obtained from a local blood bank, and peripheral blood mononuclear cells (PBMCs) were isolated by density gradient centrifugation on Ficol-Paque Plus (Pharmacia). PBMCs were suspended at 2×10^6/mL in DMEM supplemented to contain 2% FCS, 10 mM, 0.3 mg/mL […], 100 U/mL penicillin G and […] streptomycin sulfate (complete media). Cells were plated into Falcon flat bottom, 96 well culture plates (200 μL/well) and cultured overnight at 37° C. and 6% CO2. Non-adherent cells were removed by washing with 200 μl/well of fresh medium. Wells containing adherent cells (˜70% monocytes) were replenished with 100 μL of fresh medium.
Preparation of Test Compound Stock Solutions
Test compounds were dissolved in […]. Compound stock solutions were prepared to an initial concentration of […]. Stocks were diluted initially to 20-200 μM in complete media. Nine two-fold serial dilutions of each compound were then prepared in complete medium.
Treatment of Cells with Test Compounds and Activation of TNF Production with Lipopolysaccharide
One hundred microliters of each test compound dilution were added to microtiter wells containing adherent monocytes and 100 μL complete medium. Monocytes were cultured with test compounds for 60 min at which time 25 μL of complete medium containing 30 ng/mL lipopolysaccharide from E. coli K532 were added to each well. Cells were cultured an additional 4 hrs. Culture supernatants were then removed and TNF presence in the supernatants was quantified using an ELISA. […]
Standard curve data were fit to a second order polynomial and unknown TNF-α concentrations determined from their OD by solving this equation for concentration. TNF concentrations were then plotted vs. test compound concentration using a second order polynomial. This equation was then used to calculate the concentration of test compounds causing a 50% reduction in TNF production.
Compounds of the invention can also be shown to inhibit LPS-induced release of IL-1β, IL-6 and/or IL-8 from monocytes by measuring concentrations of IL-1β, IL-6 and/or IL-8 by methods well known to those skilled in the art. […] Thus, the compounds of the invention may lower elevated levels of TNF-α, IL-1, IL-6, and IL-8 levels. Reducing elevated levels of these inflammatory cytokines to basal levels or below is favorable in controlling, slowing progression, and alleviating many disease states.

pIC50: −log10 of the molar value. Where two headings read alike, the source gives them in different places.

Sequence of p38 (Q16539 whole entry): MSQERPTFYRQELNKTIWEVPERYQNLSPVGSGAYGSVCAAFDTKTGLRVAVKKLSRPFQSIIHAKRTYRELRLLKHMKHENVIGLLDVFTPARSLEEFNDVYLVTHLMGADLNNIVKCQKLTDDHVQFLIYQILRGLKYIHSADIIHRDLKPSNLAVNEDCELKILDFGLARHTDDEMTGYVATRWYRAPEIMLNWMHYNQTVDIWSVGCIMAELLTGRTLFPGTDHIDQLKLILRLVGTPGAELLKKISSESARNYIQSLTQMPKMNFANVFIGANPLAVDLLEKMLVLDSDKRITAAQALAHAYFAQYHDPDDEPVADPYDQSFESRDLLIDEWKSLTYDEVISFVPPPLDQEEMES

Turning to `Cc1ccc(C(N)=O)cc1Nc1cc(=O)n(C)c2c1cnn2-c1cc(F)ccc1F` [Example 21, 3-((1-(2,5-difluorophenyl)-7-methyl-6-oxo-6,7-dihydro-1H-pyrazolo[3,4-b]pyridin-4-yl)amino)-4-methylbenzamide], the values for the pIC50 in assay [1] (range symbols), in assay [2] (range symbols) and in assay [3] (range symbols) were greater than 7.60, greater than 7.60 and 7.00 to 7.60, respectively.

With `CCn1c(=O)cc(Oc2cc(C(=O)NC3CC3)ccc2C)c2cnn(-c3ccc(F)cc3)c21` [Example 24, N-cyclopropyl-3-((7-ethyl-1-(4-fluorophenyl)-6-oxo-6,7-dihydro-1H-pyrazolo[3,4-b]pyridin-4-yl)oxy)-4-methylbenzamide], the pIC50 – broadly, the IC50 on a negative log10 scale, so that one unit is a factor of ten – is greater than 7.60 in assay [1] (range symbols), greater than 7.60 in assay [2] (range symbols) and 7.00 to 7.60 in assay [3] (range symbols).

In the case of `CCn1c(=O)cc(Nc2cc(C(=O)NC3CC3)ccc2Cl)c2cnn(-c3ccc(F)cc3F)c21` [Example 27, 4-chloro-N-cyclopropyl-3-((1-(2,4-difluorophenyl)-7-ethyl-6-oxo-6,7-dihydro-1H-pyrazolo[3,4-b]pyridin-4-yl)amino)benzamide], the pIC50 was 9.40 in assay [1] (actual values), 8.92 in assay [2] (actual values) and 8.48 in assay [3] (actual values).

For `Cc1ccc(C(N)=O)cc1Nc1cc(=O)n(C)c2c1cnn2-c1ccc(F)cc1F` [Example 18, 3-((1-(2,4-difluorophenyl)-7-methyl-6-oxo-6,7-dihydro-1H-pyrazolo[3,4-b]pyridin-4-yl)amino)-4-methylbenzamide], the pIC50 in assay [1] (range symbols), in assay [2] (range symbols) and in assay [3] (range symbols) was greater than 7.60 throughout.
